For one assay, the system named is MCF7. Nature of the assay: Cytotoxicity against human MCF7 cells by MTT assay. It is filed as functional, cell-based.
A further assay concerns Hep 3B2. Nature of the assay: (§1) Cytotoxicity against human Hep3B cells by MTT assay. It is filed as functional, cell-based.
The subject of another assay is HT-29. Nature of the assay: Cytotoxicity against human HT-29 cells by MTT assay. It is filed as functional, cell-based. Background: Tetrazolium assays rely on reduction of a dye to a coloured formazan, in cell work by metabolically active cells.
Assay [1] can be described thus: as §1. The class given is functional, cell-based, Hep 3B2.

≈ marks a conversion by molar mass, not a printed value. Calls of active or inactive are those of the source. The rule behind the calls is not given here.

Data on three compounds can be found in ChEMBL document CHEMBL1141761, “Constituents of the pericarp of Garcinia subelliptica” (J Nat Prod, 2005).

On to `C=C(C)CC[C@@H](CC=C(C)C)[C@@H](C(=C)C)[C@](C)(CC=C(C)C)C(=O)c1cccc(O)c1`, for which the result in the assay with MCF7, in the assay on Hep 3B2 and with HT-29 was inactive.
As usually defined, the IC50 is the concentration that gives 50% inhibition. Turning to `O=c1[nH]cc(F)c(=O)[nH]1` [FLUOROURACIL], the IC50 with MCF7 is 0.0012 µg/mL (≈ 0.00923 µM); in assay [1] it was 0.072 µg/mL (≈ 0.554 µM). This compound came in with an IC60 in the assay with HT-29 of 0.074 µg/mL (≈ 0.569 µM).
With `C=C(C)CC[C@@H](C[C@@H]1C[C@]2(CC=C(C)C)C(=O)[C@@](C(=O)c3ccc(O)c(O)c3)(C(=O)C3=C2O[C@@H](C(C)(C)O)C3)C1(C)C)C(=C)C` [GARCINIELLIPTONE FB], the results for the IC50 (with MCF7; in assay [1]; with HT-29) were 6.8 µg/mL (≈ 11 µM), 6.3 µg/mL (≈ 10.2 µM) and 11.2 µg/mL (≈ 18.1 µM), respectively.
